Results on two compounds are retold here after patent US20020058244A1, “Method for detecting uracil biosynthesis inhibitors and their use as herbicides” (priority 2000, published 2002).

One data set relates to OPRTase/ODCase. Briefly: In vitro enzymatic conversion of [14C]-orotate to UMP, cell free extract from corn root tissue. It is filed as biochemical. The following applies: for radiolabeled orotate converted to UMP: 15 minutes after treatment, 100 μM PRPP, untreated control 55%; for effect on OPRTase/ODCase activity (conversion of [14C]-orotate to UMP): cell free extract. On the procedure:
(§1) Etiolated corn roots and shoots or soybean suspension cells were used as tissue. Corn seedlings were germinated on vermiculite for 4 days in the dark at 26_C. and roots and shoots harvested separately. The soybean cells were grown in media consisting of Muashige and Skoog salts (Physiol. Plant (1962) 15:473-497) purchased from Gibco/BRL, vitamins (glycine 2 mg/L, thiamine 0.1 mg/L, nicotinic acid 0.5 mg/L, pyridoxine-HCl 0.5 mg/L), myo-inositol (100 mg/L), 2,4-D ([…]), and 30 g/L sucrose. Cell cultures are grown at 25° C. with gentle shaking. Cultures were transfered every 7 days to new growth media.
(§2) Approximately 5-10 g plant tissue were ground in liquid nitrogen and resuspended in 1:2 (w/v) homogenization buffer (30 mM KPO4^−; 25 mM […], 5 mM MgCl2, 5 mM ascorbic acid, pH 7.2). The homogenate was centrifuged at 10,000 g for 20 min, and the supernatant desalted using BioRad columns. The desalted supernatant was used for OPRTase/ODCase enzyme assays. For DHOD enzyme extraction, the supernatant was further centrifuged at 100,000 g for 45 min to obtain a microsomal pellet. The microsomal pellet was resuspended in 3-4 ml resuspension buffer (70 mM Tris-base, pH 7.4) containing 1% Triton X-100.
All enzyme assays were performed according to Rawls, J. M. (1978) Anal. Biochem. 86 (1): 107-117 and Cleaveland et al. (1995). Biochem. Pharm. 49(7):947-954. Enzyme assays were performed in a total volume of 200 ul with 1 uM [^14C]carbamoyl aspartate, [^14C]dihydroorotate or [^14C]orotate as substrates, and 1-5 mM probe compound or barbiturate as inhibitors. The [^14C]carbamoyl aspartate and [^14C]dihydroorotate assay was performed using a potassium phosphate buffer, pH 7.4 with 12 mM NAD^+, and 10 mM MgCl2. […] Over time, 25 ul aliquots were taken from the reaction tube and boiled for 5 min to stop the reaction. Samples were spotted onto cellulose TLC plates and run using 0.1 M potassium phosphate buffer, 100% ammonium sulfate, and 1-propanol (10:6:1). Plates were developed using a TLC plate radioisotope detector. Orotate and UMP standards were run next to unknowns to identify the conversion of [^14C]orotate to [^14C]UMP in the enzyme assay.

Data set [1] can be described thus: Stability in aqueous solution by mass spectroscopy and NMR. It is filed as physicochemical. The following applies: aqueous solution. As to the method: The stability analysis of the compound “B”, compound “C”, compound “G”, and compound “E” compounds was performed using a Hewlett Packard HP1100 LC system coupled to a Micromass Platfom-LC mass spectrometer operating with an electrospray ionization source. In positive ion electrospray, AC12254 82A produced molecules at m/z 112(M^+), m/z 153 (M+41) at a cone voltage of 30V. Retention time of AC 12254 82A was 12.54 min with absorption maxima of 248 and 314 nm.
Column: Hypersil Spherisorb Waters ODS(2), 3.6×150 mm
Eluent: 60% acetonitrile, 40% water (0.1% formic acid)
Photodiode Array Detection: Scan Range: 190-600 nm
1H NMR was taken in DMSO-d6 on a 500 MHZ Bruker NMR Spectrometer. […] Each had 5 protons as follows: NH, 2OH and 2 CH.

The test system of the next data set is DHOD. Briefly: In vitro conversion of [14C]dihydroorotate to orotate, corn root microsomal preparation. It is filed as biochemical. On the procedure: as §1, §2
(§3) All enzyme assays were performed according to Rawls, J. M. (1978) Anal. Biochem. 86 (1): 107-117 and Cleaveland et al. (1995). Biochem. Pharm. 49(7):947-954. Enzyme assays were performed in a total volume of 200 ul with 1 uM [^14C]carbamoyl aspartate, [^14C]dihydroorotate or [^14C]orotate as substrates, and 1-5 mM probe compound or barbiturate as inhibitors. The [^14C]carbamoyl aspartate and [^14C]dihydroorotate assay was performed using a potassium phosphate buffer, pH 7.4 with 12 mM NAD^+, and 10 mM MgCl2. The [^14C]orotate enzyme assay was performed using Tris buffer, pH 8.8 with 12 mM PRPP and 10 mM MgCl2. Over time, 25 ul aliquots were taken from the reaction tube and boiled for 5 min to stop the reaction. Samples were spotted onto cellulose TLC plates and run using 0.1 M potassium phosphate buffer, 100% ammonium sulfate, and 1-propanol (10:6:1). Plates were developed using a TLC plate radioisotope detector. Orotate and UMP standards were run next to unknowns to identify the conversion of [^14C]orotate to [^14C]UMP in the enzyme assay.

Another data set concerns Arabidopsis. In words: Arabidopsis 96 well microtiter plate injury and reversal test. The following applies: for reversal of lethal effects by uridine: 100 μM uridine. It is filed as in vivo. On the procedure: The compounds were tested in a 96 microtiter well plate containing various concentrations of probe compound with or without intermediates of the pyrimidine and purine biosynthesis pathways to detect reversal of injury. Plates were filled with 0.7% agar medium, seeded with Arabidopsis, and placed in a growth chamber for several days to allow for seed germination and plant growth. Arabidopsis plates were rated on a scale from 0 to 9 where 0 represents no injury, and 9 represents no germination. In addition, injury symptoms observed were recorded.

For data set [2], the system named is uracil biosynthesis pathway. In words: [14C]-carbamoyl aspartate incorporation into uracil/uridine and orotate in soybean cell cultures. It is filed as cell-based. On the procedure:
Soybean suspension cultures in the linear growth phase were used for [^14C]carbamoyl aspartate uptake and incorporation studies. Cells were treated with 0.01 uM [^14C]carbamoyl aspartate (approximately 200,000-400,000 dpm) with or without 100 uM compound “B”. Over time, aliquots were harvested by filtration, and rinsed thoroughly with potassium phosphate buffer, pH 3.11. Aliquots of uptake media and rinse were counted using a liquid scintillation spectrophotometer to determine percent uptake. Cells were immediately weighed, ground to a fine powder in liquid nitrogen, and suspended in 50% methanol. The homogenate was centrifuged at 10,000 g for 20 min. A portion of the pellet was weighed out and combusted to determine dpm's associated with this fraction. An aliquot of the supernatant was counted to determine the amount of label in the soluble fraction. Recovery of applied radiolabeled [^14C]carbamyol aspartate was 90-100%.
The soluble supernatant was concentrated overnight by lyophilization, and the extract was resuspended in 1 ml potassium phosphate buffer, pH 3.11. For HPLC analysis an anion exchange column was used with 85:15% potassium phosphate buffer, pH 3.11 and acetonitrile as running buffers. Fractions (1 ml) were collected for 20 min (flow rate […]), and counted using a liquid scintillation counter (LSC). UV absorbance was analyzed at 260 and 275 nm as the optimum absorbency wavelengths for UMP and orotate, respectively. Standards were used to identify the various peaks from the HPLC profile. Standard retention times under these conditions were: 3-4 min uracil/uridine, 7-9 min carbamoyl aspartate, 11-13 min UMP, and 17-19 min orotate.

In the next data set the test system is wheat. In words: Greenhouse herbicide efficacy, crop safety. It is filed as in vivo. As to conditions: preemergence and post-emergence applications. From the text: (§4) The compounds were applied to flats containing individually potted plant species as post-emergent treatments, or seeded flats without emerged plants for preemergent treatments. The compounds were delivered in an 80% acetone solution plus 0.2% X-77. After two or three weeks of treatment, plants were rated compared to controls on a scale of 0 to 9 where 0 represents no injury and 9 represents 100% injury.

The subject of the next data set is DHO. In words: In vitro conversion of [14C]dihydroorotate to carbamoyl aspartate, corn root microsomal preparation. It is filed as biochemical. On the procedure:
as §1, §2, §3

Another data set has as its system grass species. Briefly: Greenhouse herbicide efficacy, preemergence and post-emergence, whole plant injury. It is filed as in vivo. The following applies: preemergence and post-emergence applications.
Text: as §4

For a further data set, the target named is uridine phosphorylase. The following applies: salvage pathway; cited from earlier work.
For another data set, the system named is whole plant. In words: Whole plant injury by barbiturate. The following applies: in vivo.
The target of data set [3] is T1, dihyroorotate dehydrogenase (DHOD) (Rattus norvegicus, UniProt Q63707).
T1 construct: host or cells: rat brain tissue
T1 sequence (Q63707 whole entry): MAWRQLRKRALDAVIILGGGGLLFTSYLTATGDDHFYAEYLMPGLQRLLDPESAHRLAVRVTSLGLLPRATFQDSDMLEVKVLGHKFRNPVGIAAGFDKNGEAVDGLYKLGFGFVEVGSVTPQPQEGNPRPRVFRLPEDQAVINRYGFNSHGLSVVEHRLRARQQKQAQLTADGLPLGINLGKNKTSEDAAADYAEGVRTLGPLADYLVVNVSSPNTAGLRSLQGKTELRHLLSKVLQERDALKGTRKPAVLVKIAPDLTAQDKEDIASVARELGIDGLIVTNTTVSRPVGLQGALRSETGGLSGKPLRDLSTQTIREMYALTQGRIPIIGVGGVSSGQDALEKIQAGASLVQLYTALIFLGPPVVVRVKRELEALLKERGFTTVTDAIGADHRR
The following applies: rat brain tissue; cited from earlier work.

Another data set addresses T2, OPRTase (Rattus norvegicus, UniProt A0ACM8Q7Z8).
T2 construct: host or cells: rat brain tissue
T2 sequence (A0ACM8Q7Z8 1-481): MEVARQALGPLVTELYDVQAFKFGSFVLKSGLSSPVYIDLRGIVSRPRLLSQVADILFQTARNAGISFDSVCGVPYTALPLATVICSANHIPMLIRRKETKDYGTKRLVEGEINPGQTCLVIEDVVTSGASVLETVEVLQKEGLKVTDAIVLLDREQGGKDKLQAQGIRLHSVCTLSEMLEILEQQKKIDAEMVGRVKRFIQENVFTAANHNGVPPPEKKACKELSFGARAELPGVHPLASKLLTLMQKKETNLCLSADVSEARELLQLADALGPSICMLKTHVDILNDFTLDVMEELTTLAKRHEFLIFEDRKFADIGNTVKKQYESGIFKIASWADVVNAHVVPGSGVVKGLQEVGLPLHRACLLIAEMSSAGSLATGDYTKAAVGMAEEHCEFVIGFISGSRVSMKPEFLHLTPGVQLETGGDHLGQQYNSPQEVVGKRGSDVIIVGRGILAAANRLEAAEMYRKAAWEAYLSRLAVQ
As to conditions: rat brain tissue; cited from earlier work.

Another data set addresses T3, ODCase (Rattus norvegicus, UniProt A0ACM8Q7Z8).
T3 construct: host or cells: rat brain tissue
The following applies: rat brain tissue; cited from earlier work.

Each structure is given as a SMILES string. Read-outs that look alike come from different tables or passages of the source.

As for `O=C1NN=C/C1=C/Nc1ccc(F)cc1F` [B, 4-[[(2,4-difluorophenyl)amino]methylene]-2,4-dihydro-3H-pyrazol-3-one], the “radiolabeled orotate converted to UMP” value in the data set with OPRTase/ODCase is 55%. Besides, the figures for the “effect on OPRTase/ODCase activity (conversion of [14C]-orotate to UMP)” value with OPRTase/ODCase and in the data set with OPRTase/ODCase (listed as probe compound) were “does not affect” and “did not inhibit”, respectively. Besides, in data set [1], the half-life was under 24 h. Moreover, the “effect on DHOD activity (dihydroorotate converted to orotate) versus untreated control” value with DHOD was “no difference”; in the data set with DHOD (listed as probe compound), “did not inhibit”. Also, the “germination of Arabidopsis seeds” value in the data set on Arabidopsis (1 μM) is on record as “normal germination”; in the data set on Arabidopsis (16 μM), “partial germination”; with Arabidopsis (50 μM) it was “not observed”; with Arabidopsis (100 μM), “not observed”; in the data set with Arabidopsis (500 μM), “not observed”. In the data set on Arabidopsis (30 uM combined with 100 uM uracil), the growth inhibition turned out to be 0%. Moreover, in the data set on Arabidopsis (100 uM antidote in growth media), the “reversal of injury by uracil, UMP and uridine” value was “reversed”. Also, the “reversal of lethal effects by uridine” value in the data set with Arabidopsis (highest tested concentration of compound) is reported as “does not reverse”; in the data set on Arabidopsis (lower concentrations of compound (Rows 2-4)), “reversed”. Moreover, the inhibition at 30 µM in the data set on Arabidopsis (Arabidopsis thaliana, 30 uM, compound alone, read-out: growth inhibition) was 50%. Moreover, the IC50 with Arabidopsis (Arabidopsis thaliana, 96 well microtiter plate, read-out: estimated IC50 on Arabidopsis) was 30 µM; in data set [2] (Glycine max, soybean cell cultures, estimated, read-out: IC50 of inhibition of [14C]-carbamoyl aspartate incorporation), about 50 µM. In addition, the “reversal of herbicidal effects by orotate or OMP” value in the data set on Arabidopsis (in vivo) was “did not reverse”. Besides, the “reversal of herbicidal effects by vitamins or purines” value in the data set on Arabidopsis (in vivo) was “Neither vitamins nor purines reversed”. Further, the “reversal of lethal effects by adenine, cytosine, guanine, and thymidine” value in the data set with Arabidopsis (in vivo) is “did not reverse”. The “incorporation of radiolabeled carbamoyl aspartate into uracil/uridine” value is on record as 25% in [2] (50 μM); 10% in [2] (100 μM); 19% in [2] (100 μM, listed as probe compound); 80-90% in data set [2] (1 and 10 μM). In data set [2] (100 uM, HPLC profile FIG. 6), the “incorporation of [14C]-carbamoyl aspartate into orotate peak (16-19 min)” value is recorded as 70%. Also, the “incorporation of radiolabeled carbamoyl aspartate into orotic acid” value in [2] (1 and 10 μM) is reported as 0-5%; in data set [2] (50 and 100 μM) it was 45-60%. For the same compound, the crop safety result in the data set on wheat is “safety on wheat”. The “effect on DHO activity (dihydroorotate converted to carbamoyl aspartate) versus untreated control” value is on record as “no difference” in the data set on DHO and “did not inhibit” in the data set on DHO (listed as probe compound). In the data set with grass species, the “herbicidal effect, injury” value was at least 50%.

Consider `O=C1CC(=O)NC(=O)N1` [barbiturate, reference compound], for which the Ki at uridine phosphorylase is 786 µM; in [3], 412 µM; at OPRTase it was 18 µM; at ODCase, 75 µM. Further, the whole plant injury result in the data set with whole plant is given as “does not cause whole plant injury”. For the same compound, the “inhibition of the conversion of orotic acid to UMP” value in the data set on OPRTase/ODCase (1 mM) was found to be 80%; with OPRTase/ODCase (2 mM) it was 100%. Further, the “radiolabeled orotate converted to UMP” value with OPRTase/ODCase was 20%. The “inhibition of the conversion of [14C]-orotate to UMP” value in the data set on OPRTase/ODCase (FIG. 10, concentration not stated) amounted to 80%. The “effect on OPRTase/ODCase activity (conversion of [14C]-orotate to UMP)” value in the data set on OPRTase/ODCase was “inhibits”. Also, in the data set on OPRTase/ODCase (corn root cell free extract, read-out: concentration at which there is 50% inhibition of UMP synthesis (IC50)), the IC50 is under 270 µM.
